In PubChem BioAssay AID1845213 (Molecular Pharmacology Branch, DTP, NCI, 2023):

Test system: NCI-H841 complex tumor spheroid viability
Experiment: Anticancer human tumor NCI-H841 cell line growth inhibition;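 further: spheroids exposed to compounds for 7 days before readout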;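 on viability, T/C: 100% = DMSO vehicle control wells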
Settings: for IC50: curve of first compound; for viability, T/C: stronger effect = lower value
Outline: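 Complex tumor spheroids combined malignant cells with endothelial cells and mesenchymal stem cells. DNA-damaging drugs and DNA repair inhibitors were tested alone and in combination, at half-log dilutions down from clinical Cmax (top 10 microM if Cmax unknown), 0.25% DMSO final.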

[1] = second compound 30 pM, first compound 0.0316 µM
[2] = second compound 30 pM, first compound 0.1 µM
[3] = second compound 30 pM, first compound 0.316 µM
[4] = second compound 30 pM, first compound 1 µM
[5] = second compound 30 pM, first compound 3.16 µM
[6] = second compound 30 pM, first compound 10 µM
[7] = second compound 94.9 pM, first compound 0.0316 µM
[8] = second compound 94.9 pM, first compound 0.1 µM
[9] = second compound 94.9 pM, first compound 0.316 µM
[10] = second compound 94.9 pM, first compound 1 µM
[11] = second compound 94.9 pM, first compound 3.16 µM
[12] = second compound 94.9 pM, first compound 10 µM
[13] = second compound 0.0003 µM, first compound 0.0316 µM
[14] = second compound 0.0003 µM, first compound 0.1 µM
[15] = second compound 0.0003 µM, first compound 0.316 µM
[16] = second compound 0.0003 µM, first compound 1 µM
[17] = second compound 0.0003 µM, first compound 3.16 µM
[18] = second compound 0.0003 µM, first compound 10 µM
[19] = second compound 0.000949 µM, first compound 0.0316 µM
[20] = second compound 0.000949 µM, first compound 0.1 µM
[21] = second compound 0.000949 µM, first compound 0.316 µM
[22] = second compound 0.000949 µM, first compound 1 µM
[23] = second compound 0.000949 µM, first compound 3.16 µM
[24] = second compound 0.000949 µM, first compound 10 µM
[25] = second compound 0.003 µM, first compound 0.0316 µM
[26] = second compound 0.003 µM, first compound 0.1 µM
[27] = second compound 0.003 µM, first compound 0.316 µM
[28] = second compound 0.003 µM, first compound 1 µM
[29] = second compound 0.003 µM, first compound 3.16 µM
[30] = second compound 0.003 µM, first compound 10 µM

SMILES	IC50 (second compound 30 pM)	IC50 (second compound 94.9 pM)	IC50 (second compound 0.0003 µM)	IC50 (second compound 0.000949 µM)	IC50 (second compound 0.003 µM)	viability, T/C [1]	viability, T/C [2]	viability, T/C [3]	viability, T/C [4]	viability, T/C [5]	viability, T/C [6]	viability, T/C [7]	viability, T/C [8]	viability, T/C [9]	viability, T/C [10]	viability, T/C [11]	viability, T/C [12]	viability, T/C [13]	viability, T/C [14]	viability, T/C [15]	other results
CC1COCCN1c1cc(-c2ccnn2C)c2ccnc(-c3ccn[nH]3)c2n1 (stereo not given) + COc1cc2c(cc1O)CCNC21CSC2c3c(OC(C)=O)c(C)c4c(c3C(COC1=O)N1C(O)C3Cc5cc(C)c(OC)c(O)c5C(C21)N3C)OCO4	< 31.6 nM	< 31.6 nM	< 31.6 nM	< 31.6 nM	< 31.6 nM	26.5%	3.12%	1.47%	0.86%	1.08%	1.34%	4.85%	0.92%	0.73%	0.72%	0.85%	1.34%	0.85%	0.44%	0.46%	viability, T/C [16]: 0.56%; viability, T/C [17]: 0.59%; viability, T/C [18]: 0.82%; viability, T/C [19]: 0.34%; viability, T/C [20]: 0.28%; viability, T/C [21]: 0.24%; viability, T/C [22]: 0.15%; viability, T/C [23]: 0.06%; viability, T/C [24]: 0.21%; viability, T/C [25]: 0.12%; viability, T/C [26]: 0.12%; viability, T/C [27]: 0.11%; viability, T/C [28]: 0.1%; viability, T/C [29]: 0.11%; viability, T/C [30]: 0.17%
COc1cc(C)[nH]c(=O)c1CN1CCc2c(Cl)cc(C(OC)C3COC3)c(Cl)c2C1=O (stereo not given) + COc1cc2c(cc1O)CCNC21CSC2c3c(OC(C)=O)c(C)c4c(c3C(COC1=O)N1C(O)C3Cc5cc(C)c(OC)c(O)c5C(C21)N3C)OCO4	9900 nM	2520 nM	< 31.6 nM	< 31.6 nM	< 31.6 nM	85.9%	76.3%	71.5%	67.3%	58.8%	48.7%	84.6%	67.9%	70.9%	56.1%	48.8%	39.1%	32.9%	27.3%	14.5%	viability, T/C [16]: 13.7%; viability, T/C [17]: 10.3%; viability, T/C [18]: 5.83%; viability, T/C [19]: 3.08%; viability, T/C [20]: 2.58%; viability, T/C [21]: 2.24%; viability, T/C [22]: 1.23%; viability, T/C [23]: 1.24%; viability, T/C [24]: 0.9%; viability, T/C [25]: 0.09%; viability, T/C [26]: 0.09%; viability, T/C [27]: 0.07%; viability, T/C [28]: 0.1%; viability, T/C [29]: 0.09%; viability, T/C [30]: 0.17%
